Fluorescence data for 21 sequences are collected here from patent US20040235049A1, “Device for presentation of polypeptides able to be used as a chip for miniaturised detection of molecules” (priority 2001, published 2004).

Where two headings read alike, the source gives them in different places.

For this assay, the system named is antibodies directed against NS3 (HCV) in sera. The assay is classed as binding, human.
Where [1] appears, read: Sérum 1, NS3 positive, positivity threshold 2205.
[2] abbreviates: Sérum 2, NS3 positive, positivity threshold 3565.
The mark [3] stands for this setting: Sérum 3, NS3 positive, positivity threshold 4374.
The mark [4] stands for this setting: Sérum 4, NS3 positive, positivity threshold 2774.
Where [5] appears, read: Sérum HCV-, positivity threshold 1271.

For the sequence YGKAIPLEAI [Peptide 1], the Fluorescence by setting is: under setting [1], 3735; under setting [2], 3143; under setting [3], 2608; under setting [4], 6357; under setting [5], 917.
For EAIKGGRHLL [Peptide 8] the same measures were 2343, 1220, 1159, 2587 and 525.
Take IPLEAIKGGR [Peptide 5]: the Fluorescence was 2260 under setting [1]; 2339 under setting [2]; 1549 under setting [3]; 4739 under setting [4]; 945 under setting [5].
For LDVSVIPTSG [Peptide 18], in that order: 29857, 4113, 4824, 6209 and 667.
For KAIPLEAIKG [Peptide 3] the same measures were 2803, 3161, 1694, 5065 and 924.
For DVSVIPTSGD [Peptide 19], in that order: 9088, 4111, 2337, 4939 and 567.
For ELAAKLSGLG [Peptide 9], the Fluorescence was 1582 under setting [1]; 1142 under setting [2]; 1671 under setting [3]; 2418 under setting [4]; 508 under setting [5].
Take LAAKLSGLGI [Peptide 10]: the Fluorescence is 3166 under setting [1]; 2418 under setting [2]; 1684 under setting [3]; 9152 under setting [4]; 551 under setting [5].
For PLEAIKGGRH [Peptide 6], in that order: 2789, 3136, 2821, 5932 and 957.
For VIPTSGDVVV [Peptide 22] the same measures were 1882, 1466, 1385, 2963 and 648.
For GKAIPLEAIK [Peptide 2], in that order: 3590, 8023, 3495, 7405 and 933.
As to AIPLEAIKGG [Peptide 4], the Fluorescence came to 2899 under setting [1]; 2988 under setting [2]; 2497 under setting [3]; 5598 under setting [4]; 1011 under setting [5].
As to LEAIKGGRHL [Peptide 7], the Fluorescence reads like this: under setting [1], 1845; under setting [2], 1307; under setting [3], 1084; under setting [4], 3077; under setting [5], 574.
For AAKLSGLGIN [Peptide 11], in that order: 2156, 1557, 1458, 5283 and 628.
For GLGINAVAYY [Peptide 16] the same measures were 4201, 5577, 1861, 5602 and 931.
IPTSGDVVVV [Peptide 23]: the Fluorescence is, setting by setting: under setting [1], 2983; under setting [2], 3394; under setting [3], 1818; under setting [4], 4505; under setting [5], 904.
For SGLGINAVAY [Peptide 15], in that order: 17944, 10603, 4786, 8262 and 791.
For VSVIPTSGDV [Peptide 20] the same measures were 7909, 4711, 2873, 11266 and 718.
For GLDVSVIPTS [Peptide 17], in that order: 7976, 6423, 2619, 7338 and 754.
For SVIPTSGDVV [Peptide 21], the Fluorescence stood at 3553 under setting [1]; 8321 under setting [2]; 2244 under setting [3]; 6853 under setting [4]; 913 under setting [5].
As for PTSGDYVVVA [Peptide 24], the Fluorescence is reported as 1835 under setting [1]; 1436 under setting [2]; 1387 under setting [3]; 3532 under setting [4]; 573 under setting [5].
